Laboratory results from ChEMBL document CHEMBL1201862, “PubChem BioAssay data set” (2004).
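The compound was tested at five concentrations on cells cultured in 96-well plates, with a 48-hour exposure period. GI50 is the concentration that inhibits growth by half.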 Active and inactive are the calls of the source. No stated cut-off is given here; in the data, active = GI50 up to about 1.1 µM and inactive = higher.

Tests used:
Assay in all cases: NCI anticancer screen, dose series, 48 h
[1] = test system: 786-0
[2] = test system: A498
[3] = test system: A549
[4] = test system: ACHN
[5] = test system: BT-549
[6] = test system: CAKI-1
[7] = test system: COLO 205
[8] = test system: EKVX
[9] = test system: HCC 2998
[10] = test system: HCT-116
[11] = test system: HCT-15
[12] = test system: HOP-62
[13] = test system: HOP-92
[14] = test system: HT-29
[15] = test system: Hs-578T
[16] = test system: IGROV-1
[17] = test system: K562
[18] = test system: KM12
[19] = test system: LOX IMVI
[20] = test system: M14
[21] = test system: MCF7
[22] = test system: MDA-MB-231
[23] = test system: MDA-MB-435
[24] = test system: MDA-N
[25] = test system: Malme-3M
[26] = test system: NCI-H226
[27] = test system: NCI-H23
[28] = test system: NCI-H460
[29] = test system: NCI-H522
[30] = test system: NCI/ADR-RES
[31] = test system: OVCAR-3
[32] = test system: OVCAR-4
[33] = test system: OVCAR-5
[34] = test system: OVCAR-8
[35] = test system: PC-3
[36] = test system: RPMI-8226
[37] = test system: RXF 393
[38] = test system: SF-268
[39] = test system: SF-295
[40] = test system: SF-539
[41] = test system: SK-MEL-28
[42] = test system: SK-MEL-2
[43] = test system: SK-OV-3
[44] = test system: SN12C
[45] = test system: SNB-19
[46] = test system: SNB-75
[47] = test system: SW-620
[48] = test system: T47D
[49] = test system: TK-10
[50] = test system: U-251
[51] = test system: UACC-257
[52] = test system: UACC-62
[53] = test system: UO-31
[54] = test system: CCRF-CEM
[55] = test system: DU-145
[56] = test system: HL-60
[57] = test system: MOLT-4
[58] = test system: SK-MEL-5

**Q.** Which GI50 [1] does the source give for `Nc1[nH]c(=O)[nH]c(=O)c1Cc1cccc(Cl)c1` here?
**A.** > 100 µM (inactive)

**Q.** And the GI50 [2]?
**A.** > 100 µM (inactive)

**Q.** What about the GI50 [3] of the same compound?
**A.** > 100 µM (inactive)

**Q.** And the GI50 [4]?
**A.** > 100 µM (inactive)

**Q.** And the GI50 [5]?
**A.** 75.2 µM (inactive)

**Q.** And the GI50 [6]?
**A.** > 100 µM (inactive)

**Q.** What about the GI50 [7] of the same compound?
**A.** > 100 µM (inactive)

**Q.** And the GI50 [8]?
**A.** > 100 µM (inactive)

**Q.** What about the GI50 [9] of the same compound?
**A.** 56 µM (inactive)

**Q.** And the GI50 [10]?
**A.** 45.5 µM (inactive)

**Q.** And the GI50 [11]?
**A.** 84.9 µM

**Q.** And the GI50 [12]?
**A.** > 100 µM (inactive)

**Q.** What about the GI50 [13] of the same compound?
**A.** 36.3 µM (inactive)

**Q.** And the GI50 [14]?
**A.** > 100 µM (inactive)

**Q.** What about the GI50 [15] of the same compound?
**A.** 39.6 µM (inactive)

**Q.** And the GI50 [16]?
**A.** 56.9 µM (inactive)

**Q.** And the GI50 [17]?
**A.** 63.5 µM (inactive)

**Q.** What about the GI50 [18] of the same compound?
**A.** 80.5 µM (inactive)

**Q.** And the GI50 [19]?
**A.** 54.7 µM (inactive)

**Q.** And the GI50 [20]?
**A.** 84.9 µM (inactive)

**Q.** What about the GI50 [21] of the same compound?
**A.** 17.9 µM (inactive)

**Q.** What about the GI50 [22] of the same compound?
**A.** > 100 µM (inactive)

**Q.** What about the GI50 [23] of the same compound?
**A.** 44 µM (inactive)

**Q.** And the GI50 [24]?
**A.** 41 µM (inactive)

**Q.** What about the GI50 [25] of the same compound?
**A.** > 100 µM (inactive)

**Q.** And the GI50 [26]?
**A.** > 100 µM (inactive)

**Q.** What about the GI50 [27] of the same compound?
**A.** > 100 µM (inactive)

**Q.** And the GI50 [28]?
**A.** 56.8 µM (inactive)

**Q.** And the GI50 [29]?
**A.** 88.9 µM (inactive)

**Q.** And the GI50 [30]?
**A.** > 100 µM (inactive)

**Q.** What about the GI50 [31] of the same compound?
**A.** > 100 µM (inactive)

**Q.** What about the GI50 [32] of the same compound?
**A.** 57.9 µM (inactive)

**Q.** And the GI50 [33]?
**A.** > 100 µM (inactive)

**Q.** And the GI50 [34]?
**A.** > 100 µM (inactive)

**Q.** What about the GI50 [35] of the same compound?
**A.** 52.7 µM (inactive)

**Q.** What about the GI50 [36] of the same compound?
**A.** 79.6 µM (inactive)

**Q.** And the GI50 [37]?
**A.** 87.3 µM (inactive)

**Q.** What about the GI50 [38] of the same compound?
**A.** 38.3 µM (inactive)

**Q.** What about the GI50 [39] of the same compound?
**A.** > 100 µM (inactive)

**Q.** What about the GI50 [40] of the same compound?
**A.** > 100 µM (inactive)

**Q.** And the GI50 [41]?
**A.** > 100 µM (inactive)

**Q.** What about the GI50 [42] of the same compound?
**A.** 71.9 µM (inactive)

**Q.** And the GI50 [43]?
**A.** > 100 µM (inactive)

**Q.** And the GI50 [44]?
**A.** > 100 µM (inactive)

**Q.** And the GI50 [45]?
**A.** > 100 µM (inactive)

**Q.** What about the GI50 [46] of the same compound?
**A.** 58.7 µM (inactive)

**Q.** What about the GI50 [47] of the same compound?
**A.** 96.2 µM (inactive)

**Q.** What about the GI50 [48] of the same compound?
**A.** 39 µM (inactive)

**Q.** What about the GI50 [49] of the same compound?
**A.** 63.7 µM (inactive)

**Q.** What about the GI50 [50] of the same compound?
**A.** > 100 µM (inactive)

**Q.** And the GI50 [51]?
**A.** 51.9 µM (inactive)

**Q.** And the GI50 [52]?
**A.** 34.4 µM (inactive)

**Q.** What about the GI50 [53] of the same compound?
**A.** 26.2 µM (inactive)

**Q.** For `CN(C)c1ccc(/C=C(\NC(=O)c2ccccc2)c2nc3ccccc3c(=O)o2)cc1`, which GI50 [1] is on record?
**A.** > 100 µM (inactive)

**Q.** What about the GI50 [2] of the same compound?
**A.** > 100 µM (inactive)

**Q.** What about the GI50 [3] of the same compound?
**A.** > 100 µM (inactive)

**Q.** And the GI50 [4]?
**A.** > 100 µM (inactive)

**Q.** And the GI50 [5]?
**A.** > 100 µM (inactive)

**Q.** And the GI50 [6]?
**A.** > 100 µM (inactive)

**Q.** What about the GI50 [54] of the same compound?
**A.** > 100 µM (inactive)

**Q.** And the GI50 [7]?
**A.** > 100 µM (inactive)

**Q.** What about the GI50 [55] of the same compound?
**A.** > 100 µM (inactive)

**Q.** What about the GI50 [8] of the same compound?
**A.** > 100 µM (inactive)

**Q.** And the GI50 [9]?
**A.** > 100 µM (inactive)

**Q.** What about the GI50 [10] of the same compound?
**A.** > 100 µM (inactive)

**Q.** And the GI50 [11]?
**A.** > 100 µM

**Q.** And the GI50 [56]?
**A.** > 100 µM (inactive)

**Q.** And the GI50 [12]?
**A.** 71.1 µM (inactive)

**Q.** And the GI50 [13]?
**A.** > 100 µM (inactive)

**Q.** What about the GI50 [14] of the same compound?
**A.** > 100 µM (inactive)

**Q.** What about the GI50 [15] of the same compound?
**A.** > 100 µM (inactive)

**Q.** What about the GI50 [16] of the same compound?
**A.** > 100 µM (inactive)

**Q.** What about the GI50 [17] of the same compound?
**A.** > 100 µM (inactive)

**Q.** And the GI50 [18]?
**A.** > 100 µM (inactive)

**Q.** And the GI50 [19]?
**A.** > 100 µM (inactive)

**Q.** And the GI50 [20]?
**A.** > 100 µM (inactive)

**Q.** And the GI50 [21]?
**A.** 70.5 µM (inactive)

**Q.** What about the GI50 [22] of the same compound?
**A.** > 100 µM (inactive)

**Q.** And the GI50 [23]?
**A.** > 100 µM (inactive)

**Q.** And the GI50 [24]?
**A.** 83.4 µM (inactive)

**Q.** And the GI50 [57]?
**A.** > 100 µM (inactive)

**Q.** What about the GI50 [25] of the same compound?
**A.** > 100 µM (inactive)

**Q.** And the GI50 [26]?
**A.** > 100 µM (inactive)

**Q.** What about the GI50 [27] of the same compound?
**A.** > 100 µM (inactive)

**Q.** And the GI50 [28]?
**A.** > 100 µM (inactive)

**Q.** What about the GI50 [29] of the same compound?
**A.** 46.7 µM (inactive)

**Q.** And the GI50 [30]?
**A.** > 100 µM (inactive)

**Q.** What about the GI50 [31] of the same compound?
**A.** > 100 µM (inactive)

**Q.** What about the GI50 [32] of the same compound?
**A.** > 100 µM (inactive)

**Q.** And the GI50 [33]?
**A.** > 100 µM (inactive)

**Q.** What about the GI50 [34] of the same compound?
**A.** 43.4 µM (inactive)

**Q.** And the GI50 [35]?
**A.** > 100 µM (inactive)

**Q.** What about the GI50 [36] of the same compound?
**A.** > 100 µM (inactive)

**Q.** What about the GI50 [37] of the same compound?
**A.** > 100 µM (inactive)

**Q.** And the GI50 [38]?
**A.** > 100 µM (inactive)

**Q.** And the GI50 [39]?
**A.** > 100 µM (inactive)

**Q.** And the GI50 [40]?
**A.** > 100 µM (inactive)

**Q.** What about the GI50 [41] of the same compound?
**A.** > 100 µM (inactive)

**Q.** What about the GI50 [42] of the same compound?
**A.** > 100 µM (inactive)

**Q.** What about the GI50 [58] of the same compound?
**A.** 91.4 µM (inactive)

**Q.** And the GI50 [43]?
**A.** > 100 µM (inactive)

**Q.** And the GI50 [44]?
**A.** > 100 µM (inactive)

**Q.** What about the GI50 [45] of the same compound?
**A.** > 100 µM (inactive)

**Q.** What about the GI50 [46] of the same compound?
**A.** > 100 µM (inactive)

**Q.** What about the GI50 [47] of the same compound?
**A.** > 100 µM (inactive)

**Q.** And the GI50 [48]?
**A.** > 100 µM (inactive)

**Q.** And the GI50 [49]?
**A.** > 100 µM (inactive)

**Q.** And the GI50 [50]?
**A.** 82 µM (inactive)

**Q.** And the GI50 [51]?
**A.** > 100 µM (inactive)

**Q.** What about the GI50 [52] of the same compound?
**A.** > 100 µM (inactive)

**Q.** And the GI50 [53]?
**A.** > 100 µM (inactive)
